Test results taken from patent US20260286254A1, “Bleach Catalyst and Composition Comprising Said Catalyst” (Reckitt Benckiser Vanish B.V., priority 2023, published 2026).
“Also recorded” adds a separate entry of the source.

Columns and labels:
[1] = Stability of bleach catalysts: UV-vis absorbance at 445 nm and appearance of alkaline solutions; assay type: physicochemical; details: for Absorption at 445 nm, t = 0 / Absorption at 445 nm, t = 48 h: 0.28 mM in 50 wt. % water/50 wt. % acetone; for Absorption at 445 nm, t = 0 / Appearance, t = 0: pH 11, t = 0; for Absorption at 445 nm, t = 48 h / Appearance, t = 48 h: pH 11, t = 48 h; for Appearance, t = 0 / Appearance, t = 48 h: alkaline conditions
Description: The stability of bleach catalysts having the structures shown in Table 1 was determined by preparing solutions of these compounds and measuring their UV-vis absorbance. The person skilled in the art will know how to synthesise the catalysts shown below starting from saccharine.
A solution of each compound was prepared by dissolving each compound in a mixture of 50 wt. % water and 50 wt. % acetone. The concentration of each solution was 0.28 mM.
The pH of each solution was set to 11 by adding few drops of a diluted solution of sodium percarbonate to mimic the alkaline conditions of the final formula.
The UV-vis absorption of each solution was measured just after preparing the samples (t=0), then at 2 h and 48 h using a UV-Vis Evolution 220 FC-1135 spectrophotometer using a 2 mm quartz cuvette.

[2] = Kinetic of Tropaeolin-O degradation (UV-Vis absorbance at 430 nm); details: statement in text on Table 5
Description: These tests were performed following the procedure described in US2012/0205581 A1. Here, Tropaeolin-O was used as sensor molecule to describe the oxidation kinetic of the different catalysts. The catalytic activity of a bleach catalyst is given by the photocatalytic degradation of tropaeolin-O under visible light irradiation.
The kinetic of tropaeolin-O degradation of each sample was determined by measuring the UV-Vis absorbance of the sample every 60 seconds for a total period of 20 minutes at 430 nm. This was done using a UV-Vis Evolution 220 FC-1135 spectrophotometer.
A base detergent system containing tropaeolin-O was prepared by adding to 1000 mL of demineralized water at 40° C., the following ingredients: • 2.92 g of Ariel Gel (as sold in the UK), • 0.088 g of Tropaeolin-O (purity ex. Sigma and used as received), • 1.75 g of Sodium percarbonate (purity: 13.3 wt. % active oxygen), • 0.10 g of bleach activator tetraacetylethylenediamine (TEAD, purity: 92 wt. % active) […]
The 430 nm absorption peak associated to the decomposition of the sensor molecule, i.e., Tropaeolin-O, after addition of a detergent system was followed over time. […] Absorbance in Table 5 is given in absorbance units (a.u.)

Row | Absorption at 445 nm, t = 0 [1] | Absorption at 445 nm, t = 48 h [1] | Appearance, t = 0 [1] | SMILES | stability of the bleach catalyst, in words [1] | Appearance, t = 48 h [1] | activity / performance (tropaeolin-O decomposition), in words [2]
1 | <0.05 | 0.37 | Transparent | CC1=NS(=O)(=O)c2ccccc21 [Bleach catalyst A, 3-methyl-1,2-benzisothiazole-1,1-dioxide] |  | coloured/yellow; also recorded: Yellowing | 
2 | <0.05 | 0.07 | Transparent | CCCCCCCCCCCCC1=NS(=O)(=O)c2ccccc21 [Bleach catalyst D, 3-lauryl-1,2-benzisothiazole-1,1-dioxide] |  | coloured/yellow; also recorded: Yellowing | 
3 | <0.05 | <0.05 | Transparent | CC(C)(C)C1=NS(=O)(=O)c2ccccc21 [Bleach catalyst C, 3-tert-butyl-1,2-benzisothiazole-1,1-dioxide] |  | Transparent | 

Second part, the compound before the results:

Row | SMILES | Absorption at 445 nm, t = 0 [1] | Absorption at 445 nm, t = 48 h [1] | Appearance, t = 0 [1] | stability of the bleach catalyst, in words [1] | Appearance, t = 48 h [1] | activity / performance (tropaeolin-O decomposition), in words [2]
4 | O=S1(=O)N=C(c2cccnc2)c2ccccc21 [Bleach catalyst 2, 3-(pyridin-3-yl)-1,2-benzisothiazole-1,1-dioxide] | <0.05 | <0.05 | Transparent | stable | Transparent | enhanced activity
5 | O=S1(=O)N=C(c2ccccc2)c2ccccc21 [Bleach catalyst B, 3-phenyl-1,2-benzisothiazole-1,1-dioxide] | <0.05 | <0.05 | Transparent |  | Transparent | 
6 | O=S1(=O)N=C(c2ccccn2)c2ccccc21 [Bleach catalyst 1, 3-(pyridin-2-yl)-1,2-benzisothiazole-1,1-dioxide] | <0.05 | <0.05 | Transparent | stable | Transparent | enhanced activity
